≈ marks a conversion by molar mass, not a printed value.
Columns and labels:
[1] = test system: Aspergillus fumigatus (RCMB 02568); assay: Well diffusion assay (inhibition zone); format: cell-based; details: RCMB02568, 5 mg/mL in DMSO, fungi, read-out: Inhibition Zone (IZ) diameter, A.F
Method: (§1) The microorganism inoculums were uniformly spread using sterile cotton swabs on a sterile Petri dish malt extract agar (for fungi) and nutrient agar (for bacteria). One hundred cubic millimeters of each sample was added to each well (10 mm-diameter holes were cut in the agar gel, 20 mm apart from one another). The systems were incubated for 24-48 h at 37 °C (for bacteria) and at 28 °C (for fungi). After incubation, the microorganism growth was observed. Inhibition zones of the bacterial and fungal growth were measured in millimeters. Tests were performed in triplicate (Cappuccino and Sherman, 1999[12]; Vanden Berghe and Vlientinck, 1991[62]).
(§2) All the newly synthesized compounds described in this report were screened for both antibacterial and antifungal activity via the reported agar diffusion well method (Vanden Berghe and Vlietinck, 1991[62]). The inhibition zones and minimum inhibitory concentrations (MIC) were determined by the serial dilution method (Cappuccino and Sherman, 1999[12]). The antimicrobial activity of the synthesized compounds was tested against a broad panel of microorganisms including two Gram-positive bacteria: Streptococcus pneumoniae (RCMB 010010) and Bacillus subtilis (RCMB 010067), two Gram-negative bacteria: Pseudomonas aeruginosa (RCMB 010043) and Escherichia coli (RCMB 010052), and four fungi: Aspergillus fumigatus (RCMB 02568), Syncephalastrum racemosum (RCMB 05922), Geotricum candidum (RCMB 05097), and Candida albicans (RCMB 05036). Ampicillin, ciprofloxacin, gentamicin and amphotericin B were used as positive control drugs (Atta-ur-Rahman and Thomsen, 2001[7]; Smania et al., 1999[57]). […] While in the case of Gm-ve bacteria, they had weak activity. In addition, certain strains of fungi were sensitive to tested compounds with an IZ range from 12-25 except Candida albicans.

[2] = test system: Bacillus subtilis (RCMB 010067); assay: Well diffusion assay (inhibition zone); format: cell-based; details: RCMB010067, 5 mg/mL in DMSO, Gm+ve, read-out: Inhibition Zone (IZ) diameter, B.S
Method: as §1, §2

[3] = test system: Escherichia coli (RCMB 010052); assay: Well diffusion assay (inhibition zone); format: cell-based; details: RCMB010052, 5 mg/mL in DMSO, Gm-ve, read-out: Inhibition Zone (IZ) diameter, E.C
Method: as §1, §2

[4] = test system: Syncephalastrum racemosum (RCMB 05922); assay: Well diffusion assay (inhibition zone); format: cell-based; details: RCMB05922, 5 mg/mL in DMSO, fungi, read-out: Inhibition Zone (IZ) diameter, S.R
Method: as §1, §2

[5] = test system: Streptococcus pneumoniae (RCMB 010010); assay: Well diffusion assay (inhibition zone); format: cell-based; details: RCMB010010, 5 mg/mL in DMSO, Gm+ve, read-out: Inhibition Zone (IZ) diameter, S.P
Method: as §1, §2

[6] = test system: Geotricum candidum (RCMB 05097); assay: Well diffusion assay (inhibition zone); format: cell-based; details: 5 mg/mL in DMSO; fungi; read-out: Inhibition Zone (IZ) diameter, G.C
Method: as §1, §2

[7] = test system: Human colon carcinoma (HCT-116); assay: Cytotoxic screening; format: cell-based; details: Homo sapiens, HCT-116; read-out: IC50 HCT-116
Method: (§3) Human colon carcinoma (HCT-116), human hepatocellular carcinoma (HEPG-2), adenocarcinomic human alveolar basal epithelial cell (A-549), and human breast adenocarcinoma (MCF-7) cell lines were obtained from the American Type Culture Collection (ATCC, Rockville, MD). The cells were grown on RPMI-1640 medium supplemented with 10 % inactivated fetal calf serum and 50 µg/ml gentamycin. The cells were maintained at 37 °C in a humidified atmosphere with 5 % CO2 and were subcultured two to three times a week. Potential cytotoxicity of the compounds was evaluated on tumor cells using the method of Gangadevi and Muthumary (2007[21]) (Klancnik et al., 2010[36]). The cells were grown as monolayers in growth RPMI-1640. The monolayers of 104 cells adhered at the bottom of the wells in a 96-well microtiter plate incubated for 24 h at 37 °C in a humidified incubator with 5 % CO2. The monolayers were then washed with sterile phosphate buffered saline (0.01 M pH 7.2) and simultaneously the cells were treated with 100 µL from different dilutions of tested sample in fresh maintenance medium and incubated at 37 °C. A control of untreated cells was made in the absence of tested sample. Positive controls containing doxorubicin were also tested as a reference drug for comparison. Six wells were used for each concentration of the test sample. Every 24 hours an observation under the inverted microscope was made. The number of the surviving cells was determined by staining the cells with crystal violet (Mosmann, 1983[42]; Gangadevi and Muthumary, 2007[21]) followed by cell lysing using 33 % glacial acetic acid and reading the absorbance at 590 nm using microplate reader (SunRise, TECAN, Inc, USA) after well mixing. The absorbance values from untreated cells were considered as 100 % proliferation. The number of viable cells was determined using microplate reader as previously mentioned before and the percentage of […] was calculated as [1-(ODt/ODc)] x 100 % where ODt is the mean optical density of wells treated with the tested sample and ODc is the mean optical density of untreated cells. The relation between surviving cells and drug concentration was plotted to get the survival curve of each tumor cell line after treatment with the specified compound. The 50 % inhibitory concentration (IC50), the concentration required to cause toxic effects in 50 % of intact cells, was estimated from graphic plots.
(§4) The in vitro cytotoxic activity was performed by MTT assay (Mosmann, 1983[42]; Alley et al., 1988[6]) against three human carcinoma cell lines: Human colon carcinoma (HCT-116), human breast adenocarcinoma (MCF-7), and human hepatocellular carcinoma (HEPG-2).

[8] = test system: human breast adenocarcinoma (MCF-7); assay: Cytotoxic screening; format: cell-based; details: Homo sapiens, MCF7; read-out: IC50 MCF-7
Method: as §3, §4

[9] = test system: human hepatocellular carcinoma (HEPG-2); assay: Cytotoxic screening; format: cell-based; details: HepG2, read-out: IC50 HepG-2
Method: as §3, §4

Question: Which zone of inhibition at 5000 µg/mL [1] does the source give for `CCCCc1ccc(C2C(C#N)=C(N)Oc3cc(O)c(N=Nc4ccc(S(=O)(=O)O)cc4)cc32)cc1` (stereo not drawn) [13h, 4-[2-Amino-4-(4-butyl-phenyl)-3-cyano-7-hydroxy-4H-chromen-6-ylazo]-benzenesulfonic acid] here?
Answer: 12.1 mm

Question: And the zone of inhibition at 5000 µg/mL [2]?
Answer: 16.3 mm

Question: What about the zone of inhibition at 5000 µg/mL [3] of the same molecule?
Answer: 13.9 mm

Question: What about the zone of inhibition at 5000 µg/mL [4] of the same molecule?
Answer: 13.6 mm

Question: And the zone of inhibition at 5000 µg/mL [5]?
Answer: 15.3 mm

Question: What about the zone of inhibition at 5000 µg/mL [6] of the same molecule?
Answer: 15.8 mm

Question: And the IC50 [7]?
Answer: 88.6 µg/mL (≈ 176 µM)

Question: What about the IC50 [8] of the same molecule?
Answer: 44.6 µg/mL (≈ 88.4 µM)

Question: And the IC50 [9]?
Answer: 40.4 µg/mL (≈ 80.1 µM)

Question: And the melting point?
Answer: 275 °C

Question: With `N#CC1=C(N)Oc2c(ccc3c(N)cccc23)C1c1cccs1` (stereo not drawn) [7e, 2,7-Diamino-4-thiophen-2-yl-4H-benzo[h]chromene-3-carbonitrile] as the molecule, how does the zone of inhibition at 5000 µg/mL [1] read?
Answer: 16.4 mm

Question: What about the zone of inhibition at 5000 µg/mL [2] of the same molecule?
Answer: 18.2 mm

Question: And the zone of inhibition at 5000 µg/mL [3]?
Answer: 15.2 mm

Question: And the zone of inhibition at 5000 µg/mL [4]?
Answer: 14.2 mm

Question: What about the zone of inhibition at 5000 µg/mL [5] of the same molecule?
Answer: 16.3 mm

Question: What about the zone of inhibition at 5000 µg/mL [6] of the same molecule?
Answer: 16.9 mm

Question: What about the IC50 [7] of the same molecule?
Answer: 39.9 µg/mL (≈ 125 µM)

Question: And the IC50 [8]?
Answer: 61.9 µg/mL (≈ 194 µM)

Question: What about the IC50 [9] of the same molecule?
Answer: 33.2 µg/mL (≈ 104 µM)

Question: What about the melting point of the same molecule?
Answer: 232 °C

Question: What does the source list for `CC(C)(C)c1ccc(C2C(C#N)=C(N)Oc3c2ccc2c(N)cccc32)cc1` (stereo not drawn) [7a, 2,7-Diamino-4-(4-tert-butyl-phenyl)-4H-benzo[h]chromene-3-carbonitrile]?
Answer: zone of inhibition at 5000 µg/mL [1]: 15.4 mm; zone of inhibition at 5000 µg/mL [2]: 16.9 mm; zone of inhibition at 5000 µg/mL [3]: 13.8 mm; zone of inhibition at 5000 µg/mL [4]: 14.1 mm; zone of inhibition at 5000 µg/mL [5]: 16.1 mm; zone of inhibition at 5000 µg/mL [6]: 15.8 mm; IC50 [7]: 14.3 µg/mL (≈ 38.7 µM); IC50 [8]: 17.5 µg/mL (≈ 47.4 µM); IC50 [9]: 11.9 µg/mL (≈ 32.2 µM); melting point: 210 °C

Question: For `CC(C)(C)c1ccc(C2C(C#N)=C(N)Oc3cc(O)c(N=Nc4ccc(S(=O)(=O)O)cc4)cc32)cc1` (stereo not drawn) [13g, 4-[2-Amino-4-(4-tert-butyl-phenyl)-3-cyano-7-hydroxy-4H-chromen-6-ylazo]-benzenesulfonic acid], which zone of inhibition at 5000 µg/mL [1] is on record?
Answer: 14.3 mm

Question: And the zone of inhibition at 5000 µg/mL [2]?
Answer: 16.1 mm

Question: And the zone of inhibition at 5000 µg/mL [3]?
Answer: 13.6 mm

Question: And the zone of inhibition at 5000 µg/mL [4]?
Answer: 15.2 mm

Question: What about the zone of inhibition at 5000 µg/mL [5] of the same molecule?
Answer: 15.2 mm

Question: What about the zone of inhibition at 5000 µg/mL [6] of the same molecule?
Answer: 17.1 mm

Question: And the IC50 [7]?
Answer: 100 µg/mL (≈ 198 µM)

Question: What about the IC50 [8] of the same molecule?
Answer: 92.6 µg/mL (≈ 184 µM)

Question: What about the IC50 [9] of the same molecule?
Answer: 81.3 µg/mL (≈ 161 µM)

Question: And the melting point?
Answer: 330 °C

Question: Which zone of inhibition at 5000 µg/mL [1] does the source give for `Cc1ccc(N=Nc2cc3c(cc2O)OC(N)=C(C#N)C3c2ccc(F)cc2)cc1` (stereo not drawn) [13a, 2-Amino-4-(4-fluoro-phenyl)-7-hydroxy-6-p-tolylazo-4H-chromene-3-carbonitrile] here?
Answer: 20.4 mm

Question: What about the zone of inhibition at 5000 µg/mL [2] of the same molecule?
Answer: 23.7 mm

Question: And the zone of inhibition at 5000 µg/mL [3]?
Answer: 14.4 mm

Question: And the zone of inhibition at 5000 µg/mL [4]?
Answer: 17.3 mm

Question: What about the zone of inhibition at 5000 µg/mL [5] of the same molecule?
Answer: 19.6 mm

Question: What about the zone of inhibition at 5000 µg/mL [6] of the same molecule?
Answer: 21.4 mm

Question: What about the melting point of the same molecule?
Answer: 203 °C

Question: For `N#CC1=C(N)Oc2cc(O)c(N=Nc3ccc(S(=O)(=O)O)cc3)cc2C1c1ccccc1F` (stereo not drawn) [13f, 4-[2-Amino-3-cyano-4-(2-fluoro-phenyl)-7-hydroxy-4H-chromen-6-ylazo]-benzenesulfonic acid], which zone of inhibition at 5000 µg/mL [1] is on record?
Answer: 10.3 mm

Question: And the zone of inhibition at 5000 µg/mL [2]?
Answer: 13.4 mm

Question: And the zone of inhibition at 5000 µg/mL [3]?
Answer: 12.1 mm

Question: What about the zone of inhibition at 5000 µg/mL [4] of the same molecule?
Answer: 11.6 mm

Question: And the zone of inhibition at 5000 µg/mL [5]?
Answer: 10.6 mm

Question: And the zone of inhibition at 5000 µg/mL [6]?
Answer: 13.4 mm

Question: And the IC50 [7]?
Answer: 100 µg/mL (≈ 214 µM)

Question: What about the IC50 [8] of the same molecule?
Answer: 79.8 µg/mL (≈ 171 µM)

Question: What about the IC50 [9] of the same molecule?
Answer: 68.4 µg/mL (≈ 147 µM)

Question: And the melting point?
Answer: 290 °C

Question: Which zone of inhibition at 5000 µg/mL [1] does the source give for `N#CC1=C(N)Oc2cc(O)c(N=Nc3ccc([N+](=O)[O-])cc3)cc2C1c1ccc(F)cc1` (stereo not drawn) [13c, 2-Amino-4-(4-fluoro-phenyl)-7-hydroxy-6-(4-nitro-phenylazo)-4H-chromene-3-carbonitrile] here?
Answer: 13.6 mm

Question: What about the zone of inhibition at 5000 µg/mL [2] of the same molecule?
Answer: 14.3 mm

Question: And the zone of inhibition at 5000 µg/mL [3]?
Answer: 9.4 mm

Question: What about the zone of inhibition at 5000 µg/mL [4] of the same molecule?
Answer: 10.4 mm

Question: What about the zone of inhibition at 5000 µg/mL [5] of the same molecule?
Answer: 14.6 mm

Question: What about the IC50 [7] of the same molecule?
Answer: 12.2 µg/mL (≈ 28.3 µM)

Question: What about the IC50 [8] of the same molecule?
Answer: 10.8 µg/mL (≈ 25 µM)

Question: What about the IC50 [9] of the same molecule?
Answer: 10.4 µg/mL (≈ 24.1 µM)

Question: And the melting point?
Answer: 254 °C
